Tests used:
p53-Y220C mutant = conditions: covalent, targets Cys220; cited from earlier work
T-p53C-Y220C [1] = target: T1, T-p53C-Y220C (Homo sapiens, UniProt P04637, M133L/N239Y/N268D/V203A/Y220C); assay: DSF thermal shift of T-p53C-Y220C; format: binding; conditions: for T-p53C-Y220C ∆Tm ± SD, concentration-dependent DSF: 1000 µM
T-p53C-Y220C [2] = target: T1, T-p53C-Y220C; assay: Intact protein mass spectrometry of T-p53C-Y220C; format: binding; conditions: protein-to-compound ratio 1:100, 24 h, 20 °C

Structure (SMILES) | increase of Tm of the Y220C mutant (p53-Y220C mutant) | T-p53C-Y220C ∆Tm ± SD (T-p53C-Y220C [1]; 250 µM, 24 h, 20 °C) [°C] | incubation time at which ∆Tm of T-p53C-Y220C plateaued / reached maximum (T-p53C-Y220C [1]; 1 mM, 20 °C, time-dependent DSF) | T-p53C-Y220C ∆Tm, time-dependent DSF (T-p53C-Y220C [1]; 1 mM, 10 min incubation, 20 °C) [°C] | T-p53C-Y220C ∆Tm ± SD, concentration-dependent DSF (T-p53C-Y220C [1]; 30 min) [°C] | T-p53C-Y220C ∆Tm ± SD (T-p53C-Y220C [1]; 1 mM, 30 min, 20 °C) [°C] | T-p53C-Y220C ∆Tm ± SD, concentration-dependent DSF (T-p53C-Y220C [1]; 24 h) [°C] | arylated T-p53C-Y220C protein species detected by intact MS (T-p53C-Y220C [2])
C=C(C)C(=O)n1cc(C)c2c(-c3ccc4c(c3)CCN(C)C4)cncc21 [KG13] | levels comparable to those of the WT protein | – | – | – | – | – | – | –
N#Cc1cnc(Cl)cn1 [SN006/7-3, 5-chloro-pyrazine-2-carbonitrile] | – | 2.87 | about 2 h | 2.30 | 2.65 | 2.75 | 3.55 | three, four, or five times

— article PMC12212008 (Drug Design, Development and Therapy, 2025)
